Data on 12 compounds can be found in US12559506B2, “Indazole based compounds and associated methods of use” (Arvinas Operations, Inc., priority 2021, dated 2026).

The structures appear in SMILES notation. Where two headings read alike, the source gives them in different places. Some results are limits rather than exact numbers.

One assay deals with T1, wildtype LRRK2 (Homo sapiens, UniProt Q5S007).
T1 construct: expressed in transfected cells; host or cells: HEK293 (ATCC CRL-1573), transient transfection, mammalian expression vector with ubiquitin promoter
T1 sequence (Q5S007 whole entry): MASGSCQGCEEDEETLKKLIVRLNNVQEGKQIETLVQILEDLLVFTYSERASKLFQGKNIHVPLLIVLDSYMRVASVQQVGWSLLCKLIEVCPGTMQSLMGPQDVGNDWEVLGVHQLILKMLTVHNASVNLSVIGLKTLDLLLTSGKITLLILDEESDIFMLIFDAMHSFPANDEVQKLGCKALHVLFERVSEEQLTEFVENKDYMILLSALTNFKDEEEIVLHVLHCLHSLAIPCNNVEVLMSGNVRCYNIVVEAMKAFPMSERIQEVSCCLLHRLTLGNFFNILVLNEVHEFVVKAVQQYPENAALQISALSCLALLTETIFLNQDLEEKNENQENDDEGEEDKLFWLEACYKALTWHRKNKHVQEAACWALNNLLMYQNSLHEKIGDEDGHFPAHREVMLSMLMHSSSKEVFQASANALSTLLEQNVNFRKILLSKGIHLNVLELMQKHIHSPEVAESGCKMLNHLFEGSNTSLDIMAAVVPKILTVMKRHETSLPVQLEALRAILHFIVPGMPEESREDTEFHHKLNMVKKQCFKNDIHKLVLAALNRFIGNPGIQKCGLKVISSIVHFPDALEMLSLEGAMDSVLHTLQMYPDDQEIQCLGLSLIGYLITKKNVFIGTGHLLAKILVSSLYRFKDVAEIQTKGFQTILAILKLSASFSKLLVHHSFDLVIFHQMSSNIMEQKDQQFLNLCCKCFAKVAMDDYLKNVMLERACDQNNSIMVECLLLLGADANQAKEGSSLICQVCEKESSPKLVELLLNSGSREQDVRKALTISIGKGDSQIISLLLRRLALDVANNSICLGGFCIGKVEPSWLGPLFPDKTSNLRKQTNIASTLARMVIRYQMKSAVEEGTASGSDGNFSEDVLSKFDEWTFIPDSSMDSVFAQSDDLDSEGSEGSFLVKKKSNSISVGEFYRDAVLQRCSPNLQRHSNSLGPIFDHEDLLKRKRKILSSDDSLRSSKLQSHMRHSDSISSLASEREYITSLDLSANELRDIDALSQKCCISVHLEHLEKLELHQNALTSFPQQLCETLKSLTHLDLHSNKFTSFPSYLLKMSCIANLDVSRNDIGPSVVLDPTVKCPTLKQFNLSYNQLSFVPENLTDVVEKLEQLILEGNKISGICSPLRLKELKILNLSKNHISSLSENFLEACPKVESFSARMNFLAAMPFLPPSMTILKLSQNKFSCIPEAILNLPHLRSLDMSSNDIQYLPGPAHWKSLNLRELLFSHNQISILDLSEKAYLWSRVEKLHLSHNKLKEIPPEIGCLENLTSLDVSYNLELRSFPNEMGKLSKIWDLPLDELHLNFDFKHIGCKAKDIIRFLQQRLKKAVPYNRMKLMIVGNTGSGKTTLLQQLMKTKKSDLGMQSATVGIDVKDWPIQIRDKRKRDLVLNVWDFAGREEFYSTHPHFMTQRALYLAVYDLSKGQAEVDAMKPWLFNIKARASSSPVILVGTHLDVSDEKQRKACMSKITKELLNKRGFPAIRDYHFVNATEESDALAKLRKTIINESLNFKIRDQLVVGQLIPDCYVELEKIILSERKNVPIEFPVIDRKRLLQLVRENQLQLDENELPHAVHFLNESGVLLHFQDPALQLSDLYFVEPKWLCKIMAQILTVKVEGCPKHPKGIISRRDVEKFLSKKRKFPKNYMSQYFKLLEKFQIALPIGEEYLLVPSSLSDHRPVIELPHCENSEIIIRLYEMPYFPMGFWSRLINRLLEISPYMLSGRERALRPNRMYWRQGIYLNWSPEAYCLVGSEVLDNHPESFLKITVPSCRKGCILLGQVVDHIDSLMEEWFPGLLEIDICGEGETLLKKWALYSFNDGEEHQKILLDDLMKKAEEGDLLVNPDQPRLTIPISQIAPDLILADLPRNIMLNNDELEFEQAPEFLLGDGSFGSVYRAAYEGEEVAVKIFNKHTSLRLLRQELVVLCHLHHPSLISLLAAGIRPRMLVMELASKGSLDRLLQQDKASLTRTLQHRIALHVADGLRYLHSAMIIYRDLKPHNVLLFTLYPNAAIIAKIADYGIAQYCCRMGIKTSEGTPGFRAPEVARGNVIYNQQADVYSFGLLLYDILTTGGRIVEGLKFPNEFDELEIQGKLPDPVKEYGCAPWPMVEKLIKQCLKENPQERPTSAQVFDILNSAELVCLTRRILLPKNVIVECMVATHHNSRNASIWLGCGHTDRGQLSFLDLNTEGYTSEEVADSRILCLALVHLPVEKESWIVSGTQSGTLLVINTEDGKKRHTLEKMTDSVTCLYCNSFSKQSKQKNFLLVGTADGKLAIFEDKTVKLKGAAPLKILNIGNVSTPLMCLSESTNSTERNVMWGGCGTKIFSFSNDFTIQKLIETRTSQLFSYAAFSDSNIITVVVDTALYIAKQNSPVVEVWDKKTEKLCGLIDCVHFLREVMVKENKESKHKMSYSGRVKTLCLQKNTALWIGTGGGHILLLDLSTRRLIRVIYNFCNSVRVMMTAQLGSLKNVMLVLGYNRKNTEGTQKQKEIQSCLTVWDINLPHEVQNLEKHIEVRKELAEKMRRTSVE
The assay can be described thus: LRRK2 degradation assay, HiBit-tagged wildtype LRRK2 expressed from plasmid in HEK293 cells (Nano-Glo Dual-Luciferase). Type of assay: cell-based. The note with it: HiBit-tagged wildtype LRRK2 in HEK293 cells, 24 hours; for Dmax: read-out: **WT Dmax (%); for DC50: read-out: *WT DC50. From the text: Exemplary Assay for Testing LRRK2 Degradation Driven by Exemplary Hetero-Bifunctional Compounds Designed to Target LRRK2
The assay measures the degradation of wildtype and G2019S LRRK2 tagged with a HiBit tag on the C-terminus of the protein that was expressed from a mammalian expression vector, driven by the ubiquitin promoter in HEK293 cells. Each compound dose-response was repeated on two separate days, on three separate plates each day.
Plasmid Preparation. Transfection mixes were assembled as follows and incubated for 30 minutes at room temperature. In a 15 mL tube, 5.25 mL Opti-MEM (no additions) was mixed with 17 μL Firefly Luciferase plasmid at 1 μg/μL and 158 μL WT plasmid DNA at 1 μg/μL (175 μg total DNA) were mixed by flicking. In a new 15 mL tube, 5.25 mL OptiMEM was mixed with 17 μL Firefly Luciferase plasmid at 1 μg/μL and 158 μL G2019S plasmid DNA at 1 μg/μL (175 μg total DNA) were mixed by flicking. X-tremeGene HP was mixed thoroughly using a vortex. Next, 175 μL was added to each tube and flicked to mix. Both tubes were left to incubate for 30 minutes at room temperature.
While the transfection mixes were incubating, HEK293 cells (acquired from ATCC; ATCC CRL-1573) were harvested with trypsin. Once cells are detached, the cells were resuspended in 12 mL OptiMEM+5% FBS and transferred to a 50 mL tube. The cells were mixed well and counted. Using OptiMEM+5% FBS, the cells were diluted in two 250 mL conical tubes at 0.71×10^6 cells/mL in 70 mL. One tube was labeled “WT” and the other “G2019S”. The WT and G2019S transfection mixes were added dropwise to the corresponding 250 mL tubes. The tubes were mixed first by pipetting then by swirling. The tubes were incubated at room temperature for at least 5 minutes.
Each tube was swirled before dispensing and after every three plates. Seventy microliters of cells were dispensed with WT or G2019S DNA to seven plates each. Three plates of each were tested with compound plate one (preparation described below) and three plates of each were tested with compound plate two (preparation described below). The first plate from each set served as a “prime” plate and was not used to test compounds. Each plate was incubated in the hood for 10 minutes before placing in the 37° C. incubator for 24 hours.
Preparation of Compound and Assay Plates. Two compound plates were made using 96 well polypropylene plates. Compounds were made up at 10 mM and were diluted to 1 mM in 30 μL. Each dose response curve included a well of DMSO, as a negative control and for normalization, and a well of 0.5 μM of Compound 4 as a positive control. In addition to seven test compounds, each plate also included a dose response of Compound 4. The compound plates were spun down along at 1200 rpm for 2 minutes.
The two compound plates were then mixed and 2 μL was diluted in intermediate plates having 248 μL of Opti-Mem in each well. Next, 10 μL diluted compounds from the intermediate plates were added to each test plate (three WT and three G2019S plates per compound plate for a total of 12 assay plates). The plates were incubated for 24 hours at 37° C.
All assay plates and all Nano-Glo Dual-Luciferase Reporter Assay System components (except for the DLR substrate) were equilibrated to room temperature. Next, the luciferase buffer was mixed with the lyophilized amber bottle until fully dissolved, and 75 μL of the luciferase mixture was added to each well of each assay plate. The assay plates were incubated for 10 minutes at room temperature with shaking for at least 5 minutes, and then read on a plate reader.
Developing Plates and Analyzing Data. One milliliter of DLR substrate and 1 mL LgBiT Protein were added to the Stop and Glo buffer, and 75 μL of the mixture was added to each well of each plate. Optically clear seals were added to each plate and each plate was incubated for 20 minutes with shaking for at least 10 minutes, and then read on a plate reader. […]
(In general: HiBiT is a short tag that completes a luciferase, so light tracks the accessible tagged protein.)

In assay [1] the target is T2, LRRK2 (endogenous, HiBit tagged) (Homo sapiens, UniProt Q5S007).
T2 construct: endogenous in cells; host or cells: HEK293 cells with HiBit knock-in at the endogenous LRRK2 locus, stably expressing firefly luciferase
T2 sequence (Q5S007 whole entry): as above
The assay can be described thus: Endogenous LRRK2 degradation assay, endogenous gene C-terminally HiBit-tagged in HEK293 cells (Nano-Glo Dual Luciferase). Type of assay: cell-based. The note with it: endogenous HiBit-tagged LRRK2 in HEK293 cells, 24 hours treatment. In outline: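 LRRK2-HiBit quantified via Nano-Glo Dual Luciferase in HEK293 knock-in cells co-expressing firefly luciferase, after 24 h exposure to compound (1 μM final top, 1:3, 11 points). Values normalised to DMSO median per plate and curve-fitted; Alamar Blue viability run alongside.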

The mark [2] stands for this setting: read-out: **Endogenous WT Dmax (%).

On to `C[C@H]1CN(c2cc(-c3n[nH]c4ccc(OC5(C)CC5)cc34)ncn2)CCN1C[C@H]1CCN(CC2CCN(c3ccc4c(c3)C(=O)N(C3CCC(=O)NC3=O)C4=O)CC2)C1` (stereo partly drawn) [Compound 111, 2-(2,6-dioxo-3-piperidyl)-5-[4-[[(3S)-3-[[(2S)-2-methyl-4-[6-[5-(1-methylcyclopropoxy)-1H-indazol-3-yl]pyrimidin-4-yl]piperazin-1-yl]methyl]pyrrolidin-1-yl]methyl]-1-piperidyl]isoindoline-1,3-dione], for which, on wildtype LRRK2, the Dmax (in general, the largest share of the target that was removed) is at least 70% and the DC50 (commonly the midpoint of the concentration-degradation curve) was under 10 nM.
The corresponding values for `CC1(Oc2ccc3[nH]nc(-c4cc(N5CCC(CN6CCN(CC7CCN(c8cccc9c8C(=O)N(C8CCC(=O)NC8=O)C9=O)CC7)CC6)CC5)ncn4)c3c2)CC1` (stereo not drawn) [Compound 146, 2-(2,6-dioxo-3-piperidyl)-4-[4-[[4-[[1-[6-[5-(1-methylcyclopropoxy)-2H-indazol-3-yl]pyrimidin-4-yl]-4-piperidyl]methyl]piperazin-1-yl]methyl]-1-piperidyl]isoindoline-1,3-dione] are 50 to 70% and 10 to 50 nM.
On to `CC1(Oc2ccc3[nH]nc(-c4cc(N5CCC(CN6CC[C@H](CN7CCN(c8ccc9c(c8)C(=O)N(C8CCC(=O)NC8=O)C9=O)CC7)C6)CC5)ncn4)c3c2)CC1` (stereo partly drawn) [Compound 114, 2-(2,6-dioxo-3-piperidyl)-5-[4-[[(3S)-1-[[1-[6-[5-(1-methylcyclopropoxy)-1H-indazol-3-yl]pyrimidin-4-yl]-4-piperidyl]methyl]pyrrolidin-3-yl]methyl]piperazin-1-yl]isoindoline-1,3-dione], for which, on wildtype LRRK2, the Dmax fell in the range of 50 to 70% and the DC50 is under 10 nM.
In the case of `CC1(Oc2cc3c(-c4cc(N5CCC(CN6CCN(CC7CCN(c8ccc9c(c8F)CN(C8CCC(=O)NC8=O)C9=O)CC7)CC6(C)C)CC5)ncn4)n[nH]c3cc2F)CC1` (stereo not drawn) [Compound 274, 3-{4-fluoro-5-[4-({4-[(1-{6-[6-fluoro-5-(1-methylcyclopropoxy)-1H-indazol-3-yl]pyrimidin-4-yl}piperidin-4-yl)methyl]-3,3-dimethylpiperazin-1-yl}methyl)piperidin-1-yl]-1-oxo-2,3-dihydro-1H-isoindol-2-yl}piperidine-2,6-dione], the Dmax in assay [1] (setting [2]) fell in the range of 50 to 70%. In assay [1] (read-out: *Endogenous WT DC50), the DC50 was under 10 nM.
The corresponding values for `CC1(Oc2ccc3n[nH]c(-c4cc(N5CCN(C[C@H]6C[C@H](OC7CCN(c8ccc9c(c8F)CN(C8CCC(=O)NC8=O)C9=O)CC7)C6)CC5)ncn4)c3c2)CC1` (stereo partly drawn) [Compound 300, 3-(4-fluoro-1-oxo-5-{4-[(1r,3r)-3-[(4-{6-[5-(1-methylcyclopropoxy)-2H-indazol-3-yl]pyrimidin-4-yl}piperazin-1-yl)methyl]cyclobutoxy]piperidin-1-yl}-2,3-dihydro-1H-isoindol-2-yl)piperidine-2,6-dione] are 50 to 70% and under 10 nM.
For `COc1c(N2CCC(CN3CCN(CC4CCN(c5cc(-c6n[nH]c7ccc(OC8(C)CC8)cc67)ncn5)CC4)[C@H](C)C3)CC2)ccc2c1CN(C1CCC(=O)NC1=O)C2=O` (stereo partly drawn) [Compound 255, 3-[4-methoxy-5-(4-{[(3R)-3-methyl-4-[(1-{6-[5-(1-methylcyclopropoxy)-1H-indazol-3-yl]pyrimidin-4-yl}piperidin-4-yl)methyl]piperazin-1-yl]methyl}piperidin-1-yl)-1-oxo-2,3-dihydro-1H-isoindol-2-yl]piperidine-2,6-dione], the DC50 in assay [1] (read-out: Endogenous WT DC50) is under 10 nM. For the same compound, the Dmax in assay [1] (read-out: Endogenous WT Dmax) fell in the range of 50 to 70%.
The corresponding values for `CC1(Oc2ccc3[nH]nc(-c4cc(N5CCC(OC6CCC7(CC6)CN(c6ccc8c(c6F)CN(C6CCC(=O)NC6=O)C8=O)C7)CC5)ncn4)c3c2)CC1` (stereo not drawn) [Compound 374, 3-(4-fluoro-5-{7-[(1-{6-[5-(1-methylcyclopropoxy)-1H-indazol-3-yl]pyrimidin-4-yl}piperidin-4-yl)oxy]-2-azaspiro[3.5]nonan-2-yl}-1-oxo-2,3-dihydro-1H-isoindol-2-yl)piperidine-2,6-dione] are under 10 nM and 50 to 70%.
The corresponding values for `COc1c(N2CCN(CC3(F)CCN(CC4CCN(c5cc(-c6n[nH]c7cnc(OC8(C)CC8)cc67)ncn5)CC4)CC3)CC2)ccc2c1CN(C1CCC(=O)NC1=O)C2=O` (stereo not drawn) [Compound 369, 3-{5-[4-({4-fluoro-1-[(1-{6-[5-(1-methylcyclopropoxy)-1H-pyrazolo[3,4-c]pyridin-3-yl]pyrimidin-4-yl}piperidin-4-yl)methyl]piperidin-4-yl}methyl)piperazin-1-yl]-4-methoxy-1-oxo-2,3-dihydro-1H-isoindol-2-yl}piperidine-2,6-dione] are under 10 nM and 50 to 70%.
Take `CC1(Oc2ccc3n[nH]c(-c4cc(N5CCC(O[C@H]6C[C@H](N7CCC8(CC7)CN(c7ccc9c(c7F)CN(C7CCC(=O)NC7=O)C9=O)C8)C6)CC5)ncn4)c3c2)CC1` (stereo partly drawn) [Compound 323, 3-(4-fluoro-1-oxo-5-{7-[(1r,3r)-3-[(1-{6-[5-(1-methylcyclopropoxy)-2H-indazol-3-yl]pyrimidin-4-yl}piperidin-4-yl)oxy]cyclobutyl]-2,7-diazaspiro[3.5]nonan-2-yl}-2,3-dihydro-1H-isoindol-2-yl)piperidine-2,6-dione]: the Dmax in assay [1] (setting [2]) lay within 50 to 70%. Also, in assay [1] (read-out: *Endogenous WT DC50), the DC50 was under 10 nM.
`CC1(Oc2ccc3n[nH]c(-c4cc(N5CCC(O[C@H]6CC[C@H](OC7CCN(c8cc9c(cc8F)C(=O)N(C8CCC(=O)NC8=O)C9)CC7)CC6)CC5)ncn4)c3c2)CC1` (stereo partly drawn) [Compound 244, 3-[6-fluoro-1-oxo-5-(4-{[(1r,4r)-4-[(1-{6-[5-(1-methylcyclopropoxy)-2H-indazol-3-yl]pyrimidin-4-yl}piperidin-4-yl)oxy]cyclohexyl]oxy}piperidin-1-yl)-2,3-dihydro-1H-isoindol-2-yl]piperidine-2,6-dione]: the DC50 in assay [1] (read-out: Endogenous WT DC50) is under 10 nM. Also, the Dmax in assay [1] (read-out: Endogenous WT Dmax) was 50 to 70%.
The corresponding values for `COc1c(N2CC3(CCN(CCN4CCN(c5cc(-c6n[nH]c7ccc(OC8(C)CC8)cc67)ncn5)CC4)CC3(F)F)C2)ccc2c1CN(C1CCC(=O)NC1=O)C2=O` (stereo not drawn) [Compound 363, 3-(5-{5,5-difluoro-7-[2-(4-{6-[5-(1-methylcyclopropoxy)-1H-indazol-3-yl]pyrimidin-4-yl}piperazin-1-yl)ethyl]-2,7-diazaspiro[3.5]nonan-2-yl}-4-methoxy-1-oxo-2,3-dihydro-1H-isoindol-2-yl)piperidine-2,6-dione] are under 10 nM and 50 to 70%.
`COc1c(N2CCC(CN3CCN(C[C@@H]4CCN(c5cc(-c6n[nH]c7ccc(OC8(C)CC8)cc67)ncn5)C4)CC3)CC2)ccc2c1CN(C1CCC(=O)NC1=O)C2=O` (stereo partly drawn) [Compound 311, 3-(4-methoxy-5-{4-[(4-{[(3S)-1-{6-[5-(1-methylcyclopropoxy)-1H-indazol-3-yl]pyrimidin-4-yl}pyrrolidin-3-yl]methyl}piperazin-1-yl)methyl]piperidin-1-yl}-1-oxo-2,3-dihydro-1H-isoindol-2-yl)piperidine-2,6-dione]: the Dmax in assay [1] (setting [2]) was in the range of 50 to 70%. Further, the 50% degradation concentration (DC50) in assay [1] (read-out: *Endogenous WT DC50) is under 10 nM.
